Test results as given in US20230082989A1, “DEVICES AND METHODS FOR TREATING CANCER AND CARDIAC WASTING” (Nazzano Devices Limited, priority 2020, published 2023).

Tests used:
Type in all cases: in vivo, human
[1] = tested on: patients with advanced cancer; assay: Prospective study of ivabradine in advanced cancer patients: heart rate; conditions: 4 cancer patients, no known heart failure, LVEF>50%, heart rate >70 bpm; Ivabradine starting dose 5 mg twice a day; reduced from 104.5±10.4 bpm
Source text: In this study an effect of a use of a heart drug in advanced cancer was studied. In some cases, a heart drug can comprise ivabradine. In some cases, ivabradine can be a selective antagonist of myocardial If (funny) channels. […] In some cases, ivabradine can provide pure heart rate reduction, reducing a diastolic depolarization slope, without altering other cardiac and hemodynamic parameters. In some cases, ivabradine can be effective for a treatment of an ischemic heart disease. In some cases, ivabradine can reduce episodes of both symptomatic angina pectoris and myocardial ischemia, and in heart failure where it can reduce mortality and morbidity. In some cases, it may only be approved or recommended for treatment of these two conditions. In some cases, ivabradine may have never been recommended for a treatment of a cancer patient. Disclosed herein in some embodiments, are methods in which ivabradine can be administered for a treatment of a cancer patient.
In this study 4 cancer patients with no known heart failure and with normal left ventricular function (LEF>50%) were studied. […]

[2] = tested on: patients with advanced cancer; assay: Quality of life by Kansas City Cardiomyopathy Questionnaire (KCCQ), ivabradine study
Source text: N=4, LVEF>50%. A 5 unit increase was considered a clinically meaningful change. […] The KCCQ score range is 0-100, with higher scores indicating better QoL, and improvements of ≥5 indicated clinically important changes.
(§1) In this study 4 cancer patients with no known heart failure and with normal left ventricular function (LEF>50%) were studied. They all had histologically confirmed diagnoses of cancer (see table 1), and all suffered poor quality of life, with three showing a Karnofksy performance score of 70-80% (indicating an inability to carry on normal activity or to do active work) and one showing a Karnofksy performance score of 50-60% (indicating a need for considerable assistance and frequent medical care). […] All were given Ivabradine at a starting dose of 5 mg twice a day. Heart rate was reduced in all patients from 104.5±10.4 bpm to 77.0±10.9 bpm. […] The questionnaires are the Minnesota Living with Heart Failure Questionnaire (MLHFQ) (see FIG. 15) and the Kansas City Cardiomyopathy Questionnaire (KCCQ) (see FIG. 14). In the […] indicate a better quality of life and in the MLWHFQ lower scores indicate a better quality of life. The two figures show the clinically important improvement in symptoms and quality of life achieved in these patient by the use of the heart failure drug Ivabradine.

[3] = tested on: patients with advanced cancer; assay: Quality of life by Minnesota Living with Heart Failure Questionnaire (MLHFQ), ivabradine study; conditions: N=4, LVEF>50%; total score range 0-105, lower = better QoL, <24 good QoL
Source text: N=4, LVEF>50%. […] MLHFQ has a total score range of 0-105. A lower score indicated a better QoL, with a score of <24 indicating good QoL, scores from 24 to […] indicating moderately impaired QoL, scores >45 indicating low QoL.
as §1

## COc1cc2c(cc1OC)CC(=O)N(CCCN(C)C[C@H]1Cc3cc(OC)c(OC)cc31)CC2 [Ivabradine]
[1]
  Heart rate on ivabradine: 77.0±10.9 bpm
[2]; 4 cancer patients, addition of ivabradine 5 mg twice a day starting dose
  Symptoms (breathlessness, fatigue) by MLHFQ and KCCQ symptom scores: importantly improved symptoms
[2]; N=4, LVEF>50%, score range 0-100, higher = better QoL, improvement ≥5 clinically important
  KCCQ score improvement from baseline to follow up: ≥ 5
[3]
  MLHFQ score, baseline to follow-up: improvements from baseline to follow-up, with good QoL at follow-up
